From the supplement of paper PMC8149375

Experiments:
Settings in all cases: treatment: drug + dasatinib (fixed dose, not stated); 5 days
[1] = test system: 786-O; test: minimum viability across doses, drug + dasatinib, relative to DMSO (fraction); higher = less growth inhibition
Description: (§1)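 Primary HTS combination arm: 8 RCC cell lines treated with 8 doses (up to 10 uM) of each library drug plus a fixed dose of dasatinib (dose not stated) for 5 days; viability read by CellTiter-Glo and normalised to DMSO. GI50 was fitted with XLfit, AUC is the area under the dose-response curve, and minimum viability is the lowest fraction of DMSO viability across doses.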

[2] = test system: A498; test: as above
Description: as §1

[3] = test system: UO-31; test: as above
Description: as §1

[4] = test system: 769-P; test: as above
Description: as §1

[5] = test system: TK-10; test: as above
Description: as §1

[6] = test system: ACHN; test: as above
Description: as §1

[7] = test system: CAKI-1; test: as above
Description: as §1

[8] = test system: SN12C; test: as above
Description: as §1

[9] = test system: 786-O; test: AUC of dose-response viability curve, drug + dasatinib, normalised to DMSO (arbitrary (AUC of normalised viability)); higher = less growth inhibition
Description: as §1

[10] = test system: A498; test: as above
Description: as §1

[11] = test system: UO-31; test: as above
Description: as §1

[12] = test system: 769-P; test: as above
Description: as §1

[13] = test system: TK-10; test: as above
Description: as §1

[14] = test system: ACHN; test: as above
Description: as §1

[15] = test system: CAKI-1; test: as above
Description: as §1

[16] = test system: SN12C; test: as above
Description: as §1

[17] = test system: 786-O; test: GI50 of drug in presence of dasatinib; higher = less potent
Description: as §1

[18] = test system: A498; test: as above
Description: as §1

[19] = test system: UO-31; test: as above
Description: as §1

[20] = test system: 769-P; test: as above
Description: as §1

[21] = test system: TK-10; test: as above
Description: as §1

[22] = test system: ACHN; test: as above
Description: as §1

[23] = test system: CAKI-1; test: as above
Description: as §1

[24] = test system: SN12C; test: as above
Description: as §1

Row | Structure (SMILES) | minimum viability across doses [1] | minimum viability across doses [2] | minimum viability across doses [3] | minimum viability across doses [4] | minimum viability across doses [5] | minimum viability across doses [6] | minimum viability across doses [7] | minimum viability across doses [8] | AUC of dose-response viability curve [9] | AUC of dose-response viability curve [10] | AUC of dose-response viability curve [11] | AUC of dose-response viability curve [12] | AUC of dose-response viability curve [13] | AUC of dose-response viability curve [14] | AUC of dose-response viability curve [15] | AUC of dose-response viability curve [16] | GI50 of drug [17] | GI50 of drug [18] | GI50 of drug [19] | GI50 of drug [20] | GI50 of drug [21] | GI50 of drug [22] | GI50 of drug [23] | GI50 of drug [24]
1 | Nc1ncnc2c1c(-c1cccc(OCc3ccccc3)c1)cn2[C@H]1C[C@H](CN2CCCC2)C1 [NVP-ADW742] + Cc1nc(Nc2ncc(C(=O)Nc3c(C)cccc3Cl)s2)cc(N2CCN(CCO)CC2)n1 [dasatinib] | 0.172 | 0.296 | 0.0171 | 0.278 | 0.124 | 0.147 | 0.0883 | 0.48 | 2.33 | 3.18 | 2.57 | 2.45 | 2.44 | 1.77 | 2 | 2.44 | 3280 nM | 8960 nM | 2490 nM | 5140 nM | 3390 nM | 129 nM | 1290 nM | > 10000 nM
2 | COc1ccc(-c2ccc3ncc4c(c3c2)n(-c2ccc(N3CCNCC3)c(C(F)(F)F)c2)c(=O)n4C)cn1.O=C(O)/C=C\C(=O)O [NVP-BGT226] + Cc1nc(Nc2ncc(C(=O)Nc3c(C)cccc3Cl)s2)cc(N2CCN(CCO)CC2)n1 [dasatinib] | 0.00462 | 0.0127 | 0.0107 | 0.00834 | 0.00345 | 0.00153 | 0.00249 | 0.00253 | 0.402 | 0.972 | 0.779 | 0.87 | 0.725 | 0.453 | 0.631 | 0.601 | 5.3 nM | 20 nM | 14.2 nM | 15.9 nM | 12.2 nM | 4.38 nM | 10.1 nM | 6.06 nM
3 | Cc1ccc(C(=O)Nc2cccc(C(F)(F)F)c2)cc1Nc1nc(-c2cccnc2)nc2c1cnn2C [NVP-BHG712] + Cc1nc(Nc2ncc(C(=O)Nc3c(C)cccc3Cl)s2)cc(N2CCN(CCO)CC2)n1 [dasatinib] | 0.00229 | 0.0233 | 0.00794 | 0.0398 | 0.0343 | 0.126 | 0.026 | 0.0536 | 1.66 | 3.17 | 3.61 | 2.16 | 2.1 | 1.8 | 1.87 | 2.37 | 491 nM | 4420 nM | 3110 nM | 1640 nM | 1070 nM | 511 nM | 506 nM | 6860 nM
